≈ marks a conversion by molar mass, not a printed value.
Tests used:
Streptococcus pneumoniae [1] = assay: Antibacterial activity against Streptococcus pneumoniae U2A1693 harboring parC Asp83Asn mutant gene by agar disk diffusion method; format: functional
Streptococcus pneumoniae [2] = assay: Antibacterial activity against Streptococcus pneumoniae R6 Tr6 harboring gyrA Ser81Phe mutant gene by agar disk diffusion method; format: functional
Streptococcus pneumoniae [3] = assay: Antibacterial activity against Streptococcus pneumoniae U2A1413 harboring parC Ser79Tyr mutant gene by agar dilution method; format: functional
Streptococcus pneumoniae [4] = assay: Antibacterial activity against Streptococcus pneumoniae U2A1050 harboring gyrA Ser81Phe mutant gene by agar disk diffusion method; format: functional
Streptococcus pneumoniae [5] = assay: Antibacterial activity against Streptococcus pneumoniae R6 by agar disk diffusion method; format: functional
Streptococcus pneumoniae [6] = assay: Antibacterial activity against Streptococcus pneumoniae U2A1414 harboring gyrA Glu85Lys parC Ser79Phe mutant gene by agar disk diffusion method; format: functional
Streptococcus pneumoniae [7] = assay: Antibacterial activity against Streptococcus pneumoniae U2A1060 harboring gyrA Ser81Phe parC Asp83His mutant gene by agar disk diffusion method; format: functional
Streptococcus pneumoniae [8] = assay: Antibacterial activity against Streptococcus pneumoniae U2A1053 harboring parC Ser79Phe mutant gene by agar disk diffusion method; format: functional
Streptococcus pneumoniae [9] = assay: Antibacterial activity against Streptococcus pneumoniae U2A1681 harboring parC Ser79Tyr Asp83Ala mutant gene by agar disk diffusion method; format: functional
Streptococcus pneumoniae [10] = assay: Antibacterial activity against Streptococcus pneumoniae U2A1411 harboring parC Asp83Gly mutant gene by agar dilution method; format: functional
Streptococcus pneumoniae [11] = assay: Antibacterial activity against Streptococcus pneumoniae U2A1266 harboring gyrA Ser81Cys mutant gene by agar disk diffusion method; format: functional
Streptococcus pneumoniae [12] = assay: Antibacterial activity against Streptococcus pneumoniae U2A1693 harboring parC Asp83Asn mutant gene by agar dilution method; format: functional
Streptococcus pneumoniae [13] = assay: Antibacterial activity against Streptococcus pneumoniae U2A1056 harboring gyrA Ser81Tyr parC Asp83His mutant gene by agar dilution method; format: functional
Streptococcus pneumoniae [14] = assay: Antibacterial activity against Streptococcus pneumoniae CIP104485 by agar disk diffusion method; format: functional, CIP1044
Streptococcus pneumoniae [15] = assay: Antibacterial activity against Streptococcus pneumoniae U2A1411 harboring parC Asp83Gly mutant gene by agar disk diffusion method; format: functional
Streptococcus pneumoniae [16] = assay: Antibacterial activity against Streptococcus pneumoniae CP1000 by agar dilution method; format: functional
Streptococcus pneumoniae [17] = assay: Antibacterial activity against Streptococcus pneumoniae U2A1686 harboring gyrA Glu85Lys mutant gene by agar disk diffusion method; format: functional
Streptococcus pneumoniae [18] = assay: Antibacterial activity against Streptococcus pneumoniae U2A1681 harboring parC Ser79Tyr Asp83Ala mutant gene by agar dilution method; format: functional
Streptococcus pneumoniae [19] = assay: Antibacterial activity against Streptococcus pneumoniae U2A1413 harboring parC Ser79Tyr mutant gene by agar disk diffusion method; format: functional
Streptococcus pneumoniae [20] = assay: Antibacterial activity against Streptococcus pneumoniae U2A1686 harboring gyrA Glu85Lys mutant gene by agar dilution method; format: functional
Streptococcus pneumoniae [21] = assay: Antibacterial activity against Streptococcus pneumoniae U2A1051 harboring gyrA Ser81Tyr mutant gene by agar disk diffusion method; format: functional
Streptococcus pneumoniae [22] = assay: Antibacterial activity against Streptococcus pneumoniae U2A1051 harboring gyrA Ser81Tyr mutant gene by agar dilution method; format: functional
Streptococcus pneumoniae [23] = assay: Antibacterial activity against Streptococcus pneumoniae U2A1414 harboring gyrA Glu85Lys parC Ser79Phe mutant gene by agar dilution method; format: functional
Streptococcus pneumoniae [24] = assay: Antibacterial activity against Streptococcus pneumoniae U2A1050 harboring gyrA Ser81Phe mutant gene by agar dilution method; format: functional
Streptococcus pneumoniae [25] = assay: Antibacterial activity against Streptococcus pneumoniae U2A1266 harboring gyrA Ser81Cys mutant gene by agar dilution method; format: functional
Streptococcus pneumoniae [26] = assay: Antibacterial activity against Streptococcus pneumoniae R6 Tr6 harboring gyrA Ser81Phe mutant gene by agar dilution method; format: functional
Streptococcus pneumoniae [27] = assay: Antibacterial activity against Streptococcus pneumoniae CIP104485 by agar dilution method; format: functional; conditions: CIP1044
Streptococcus pneumoniae [28] = assay: Antibacterial activity against Streptococcus pneumoniae R6 Tr1 harboring parC Ser79Tyr mutant gene by agar dilution method; format: functional
Streptococcus pneumoniae [29] = assay: Antibacterial activity against Streptococcus pneumoniae R6 by agar dilution method; format: functional
Streptococcus pneumoniae [30] = assay: Antibacterial activity against Streptococcus pneumoniae U2A1053 harboring parC Ser79Phe mutant gene by agar dilution method; format: functional
Streptococcus pneumoniae [31] = assay: Antibacterial activity against Streptococcus pneumoniae R6 Tr1 harboring parC Ser79Tyr mutant gene by agar disk diffusion method; format: functional
Streptococcus pneumoniae [32] = assay: Antibacterial activity against Streptococcus pneumoniae CP1000 by agar disk diffusion method; format: functional
Streptococcus pneumoniae [33] = assay: Antibacterial activity against Streptococcus pneumoniae R6 Tr10 harboring gyrA Ser81Tyr parC Ser79Tyr mutant gene by agar disk diffusion method; format: functional
Streptococcus pneumoniae [34] = assay: Antibacterial activity against Streptococcus pneumoniae H548 clinical isolate harboring gyrA Ser81Phe mutant gene by agar disk diffusion method; format: functional
Streptococcus pneumoniae [35] = assay: Antibacterial activity against Streptococcus pneumoniae U2A1056 harboring gyrA Ser81Tyr parC Asp83His mutant gene by agar disk diffusion method; format: functional
Streptococcus pneumoniae [36] = assay: Antibacterial activity against Streptococcus pneumoniae R6 Tr10 harboring gyrA Ser81Tyr parC Ser79Tyr mutant gene by agar dilution method; format: functional
Streptococcus pneumoniae [37] = assay: Antibacterial activity against Streptococcus pneumoniae U2A1060 harboring gyrA Ser81Phe parC Asp83His mutant gene by agar dilution method; format: functional

Row | Compound | diameter of the inhibition zone (DIZ) (Streptococcus pneumoniae [1]) [mm] | diameter of the inhibition zone (DIZ) (Streptococcus pneumoniae [2]) [mm] | MIC (Streptococcus pneumoniae [3]) [µg/mL] | diameter of the inhibition zone (DIZ) (Streptococcus pneumoniae [4]) [mm] | diameter of the inhibition zone (DIZ) (Streptococcus pneumoniae [5]) [mm] | diameter of the inhibition zone (DIZ) (Streptococcus pneumoniae [6]) [mm] | diameter of the inhibition zone (DIZ) (Streptococcus pneumoniae [7]) [mm] | diameter of the inhibition zone (DIZ) (Streptococcus pneumoniae [8]) [mm] | diameter of the inhibition zone (DIZ) (Streptococcus pneumoniae [9]) [mm] | diameter of the inhibition zone (DIZ) (Streptococcus pneumoniae [11]) [mm] | MIC (Streptococcus pneumoniae [13]) [µg/mL] | diameter of the inhibition zone (DIZ) (Streptococcus pneumoniae [14]) [mm] | diameter of the inhibition zone (DIZ) (Streptococcus pneumoniae [15]) [mm] | diameter of the inhibition zone (DIZ) (Streptococcus pneumoniae [17]) [mm] | diameter of the inhibition zone (DIZ) (Streptococcus pneumoniae [19]) [mm] | diameter of the inhibition zone (DIZ) (Streptococcus pneumoniae [21]) [mm] | MIC (Streptococcus pneumoniae [23]) [µg/mL] | diameter of the inhibition zone (DIZ) (Streptococcus pneumoniae [31]) [mm] | diameter of the inhibition zone (DIZ) (Streptococcus pneumoniae [32]) [mm] | diameter of the inhibition zone (DIZ) (Streptococcus pneumoniae [33]) [mm] | further results
1 | COc1c(N2C[C@@H]3CCCN[C@@H]3C2)c(F)cc2c(=O)c(C(=O)O)cn(C3CC3)c12 [MOXIFLOXACIN] | 27 | 24 | 0.25 (≈ 0.623 µM) | 25 | 26 | 17 | 18 | 26 | 12 | 26 | 2 (≈ 4.98 µM) | 26 | 25 | 27 | 31 | 25 | 8 (≈ 19.9 µM) | 28 | 28 | 18 | MIC (Streptococcus pneumoniae [10]): 0.5 µg/mL (≈ 1.25 µM); MIC (Streptococcus pneumoniae [12]): 0.5 µg/mL (≈ 1.25 µM); MIC (Streptococcus pneumoniae [16]): 0.25 µg/mL (≈ 0.623 µM); MIC (Streptococcus pneumoniae [18]): 8 µg/mL (≈ 19.9 µM); MIC (Streptococcus pneumoniae [20]): 0.5 µg/mL (≈ 1.25 µM); MIC (Streptococcus pneumoniae [22]): 1 µg/mL (≈ 2.49 µM); MIC (Streptococcus pneumoniae [24]): 1 µg/mL (≈ 2.49 µM); MIC (Streptococcus pneumoniae [25]): 0.5 µg/mL (≈ 1.25 µM); MIC (Streptococcus pneumoniae [26]): 0.5 µg/mL (≈ 1.25 µM); MIC (Streptococcus pneumoniae [27]): 0.125 µg/mL (≈ 0.311 µM); MIC (Streptococcus pneumoniae [28]): 0.5 µg/mL (≈ 1.25 µM); MIC (Streptococcus pneumoniae [29]): 0.125 µg/mL (≈ 0.311 µM); MIC (Streptococcus pneumoniae [30]): 0.25 µg/mL (≈ 0.623 µM)
2 | CCn1cc(C(=O)O)c(=O)c2ccc(C)nc21 [NALIDIXIC ACID] | 6 | 6 | – | 6 | 6 | 6 | 14 | 13 | 6 | 6 | – | 6 | 6 | 6 | 6 | 8 | – | 6 | 6 | 6 | diameter of the inhibition zone (DIZ) (Streptococcus pneumoniae [34]): 6 mm; diameter of the inhibition zone (DIZ) (Streptococcus pneumoniae [35]): 6 mm
3 | C[C@@H]1CN(c2c(F)c(N)c3c(=O)c(C(=O)O)cn(C4CC4)c3c2F)C[C@H](C)N1 [SPARFLOXACIN] | 24 | 23 | 0.25 (≈ 0.637 µM) | 22 | 23 | 6 | 11 | 25 | 6 | 23 | 8 (≈ 20.4 µM) | 24 | 19 | 24 | 28 | 22 | > 32 | 25 | 26 | 12 | MIC (Streptococcus pneumoniae [36]): 16 µg/mL (≈ 40.8 µM); MIC (Streptococcus pneumoniae [37]): 16 µg/mL (≈ 40.8 µM); diameter of the inhibition zone (DIZ) (Streptococcus pneumoniae [34]): 20 mm; MIC (Streptococcus pneumoniae [16]): 0.25 µg/mL (≈ 0.637 µM); MIC (Streptococcus pneumoniae [18]): 32 µg/mL (≈ 81.5 µM); MIC (Streptococcus pneumoniae [20]): 2 µg/mL (≈ 5.1 µM); diameter of the inhibition zone (DIZ) (Streptococcus pneumoniae [35]): 11 mm; MIC (Streptococcus pneumoniae [22]): 2 µg/mL (≈ 5.1 µM); MIC (Streptococcus pneumoniae [24]): 2 µg/mL (≈ 5.1 µM); MIC (Streptococcus pneumoniae [25]): 1 µg/mL (≈ 2.55 µM); MIC (Streptococcus pneumoniae [26]): 1 µg/mL (≈ 2.55 µM); MIC (Streptococcus pneumoniae [27]): 0.25 µg/mL (≈ 0.637 µM); MIC (Streptococcus pneumoniae [28]): 1 µg/mL (≈ 2.55 µM); MIC (Streptococcus pneumoniae [29]): 0.25 µg/mL (≈ 0.637 µM); MIC (Streptococcus pneumoniae [30]): 0.25 µg/mL (≈ 0.637 µM)
4 | C[C@H]1COc2c(N3CCN(C)CC3)c(F)cc3c(=O)c(C(=O)O)cn1c23.C[C@H]1COc2c(N3CCN(C)CC3)c(F)cc3c(=O)c(C(=O)O)cn1c23.O [LEVOFLOXACIN] | 19 | 23 | – | 19 | 21 | 6 | 6 | 22 | 6 | 21 | – | 22 | 15 | 26 | 22 | 22 | > 32 | 21 | 24 | 6 | diameter of the inhibition zone (DIZ) (Streptococcus pneumoniae [34]): 6 mm; diameter of the inhibition zone (DIZ) (Streptococcus pneumoniae [35]): 12 mm
5 | CCn1cc(C(=O)O)c(=O)c2cc(F)c(N3CCN(C)CC3)cc21 [PEFLOXACIN] | – | 19 | 32 (≈ 96 µM) | 18 | 17 | – | – | 13 | – | 17 | 64 (≈ 192 µM) | 18 | – | 23 | 13 | 20 | > 128 | – | 21 | – | MIC (Streptococcus pneumoniae [36]): > 128 µg/mL; MIC (Streptococcus pneumoniae [37]): 128 µg/mL (≈ 384 µM); MIC (Streptococcus pneumoniae [10]): 64 µg/mL (≈ 192 µM); MIC (Streptococcus pneumoniae [12]): 64 µg/mL (≈ 192 µM); MIC (Streptococcus pneumoniae [16]): 4 µg/mL (≈ 12 µM); MIC (Streptococcus pneumoniae [18]): > 128 µg/mL; MIC (Streptococcus pneumoniae [20]): 8 µg/mL (≈ 24 µM); MIC (Streptococcus pneumoniae [22]): 16 µg/mL (≈ 48 µM); MIC (Streptococcus pneumoniae [24]): 16 µg/mL (≈ 48 µM); MIC (Streptococcus pneumoniae [25]): 16 µg/mL (≈ 48 µM); MIC (Streptococcus pneumoniae [26]): 8 µg/mL (≈ 24 µM); MIC (Streptococcus pneumoniae [27]): 8 µg/mL (≈ 24 µM); MIC (Streptococcus pneumoniae [28]): 64 µg/mL (≈ 192 µM); MIC (Streptococcus pneumoniae [29]): 8 µg/mL (≈ 24 µM); MIC (Streptococcus pneumoniae [30]): 128 µg/mL (≈ 384 µM)
6 | O=C(O)c1cn(C2CC2)c2cc(N3CCNCC3)c(F)cc2c1=O [CIPROFLOXACIN] | – | 21 | 2 (≈ 6.04 µM) | 23 | 21 | 6 | 6 | 19 | 6 | 23 | 32 (≈ 96.6 µM) | 25 | 10 | 25 | 24 | 22 | > 32 | 19 | 23 | 6 | MIC (Streptococcus pneumoniae [36]): > 32 µg/mL; MIC (Streptococcus pneumoniae [37]): > 32 µg/mL; MIC (Streptococcus pneumoniae [10]): > 32 µg/mL; MIC (Streptococcus pneumoniae [16]): 1 µg/mL (≈ 3.02 µM); MIC (Streptococcus pneumoniae [18]): > 32 µg/mL; MIC (Streptococcus pneumoniae [20]): 1 µg/mL (≈ 3.02 µM); diameter of the inhibition zone (DIZ) (Streptococcus pneumoniae [35]): 6 mm; MIC (Streptococcus pneumoniae [22]): 2 µg/mL (≈ 6.04 µM); MIC (Streptococcus pneumoniae [24]): 2 µg/mL (≈ 6.04 µM); MIC (Streptococcus pneumoniae [25]): 2 µg/mL (≈ 6.04 µM); MIC (Streptococcus pneumoniae [26]): 1 µg/mL (≈ 3.02 µM); MIC (Streptococcus pneumoniae [27]): 1 µg/mL (≈ 3.02 µM); MIC (Streptococcus pneumoniae [28]): 2 µg/mL (≈ 6.04 µM); MIC (Streptococcus pneumoniae [29]): 1 µg/mL (≈ 3.02 µM); MIC (Streptococcus pneumoniae [30]): 4 µg/mL (≈ 12.1 µM)
